Experimental data reported in patent US20080269325A1, “Methods to Relieve Pain” (Imperial Innovations Limited, priority 2004, published 2008).
One block for each compound: values may come before it.

Columns and labels:
[1] = tested on: formalin-evoked pain in the rat; assay: Formalin test (CPS-WST(0,1,2) pain score); assay type: in vivo
Procedure: All experiments conformed with British Home Office regulations. Male Wistar rats weighing 230-290 g were obtained from B&K. Animals were housed in group cages and maintained on a 12-hour light-dark cycle with ad libitum access to food and water. Each animal was used in one experiment only.
L-29 was a gift from D Lambert (see FIG. 1 for chemical structure). SR1 and SR2 were a gift from Sanofi and capsazepine was purchased from Tocris. All drugs were dissolved in 40% dimethyl sulphoxide (DMSO) and saline.
Rats were randomised into seven groups. Investigator JB carried out the dosing of the animals to conform with Home Office regulations, while investigator HJ carried out all other duties including scoring the behavioural test, she was blinded to the drugs given. All animals were acclimatised to the testing environment for at least 30 min prior to the experiment beginning. Each animal received a first intraperitoneal (i.p.) injection of either vehicle or antagonist and five minutes later a second i.p. injection of either vehicle or L-29. […] 10 min later all the animals received a formalin injection.
50 μl of 2.5% formalin was injected subcutaneously into the dorsum of the right hind paw via a 27G needle. The paw was then marked with permanent ink. The animal was immediately replaced in the observation chamber, a clear plexiglass box measuring 23 cm×18 cm×14 cm, with a mirror positioned underneath at 45° to allow an unobstructed view of the paw. Observations began as the rats were placed in the box and continued for 60 min. Their behaviour was rated according to the Composite Pain Score, Weighted Scores Technique (CPS-WST (0,1,2)), a validated pain behaviour scoring system for the rat formalin test (Watson et al 1997). The amount of time spent in each of 2 behavioural categories was measured for each consecutive 5 min period within the hour scored. Category 1, the injected paw is elevated and not in contact with any surface and category 2, the injected paw is licked, bitten or shaken. A weighted score was then obtained for each 5 min period and for phase 1 (0-15 min) and phase 2 (15-60 min), by using the formula below:
CPS-WST=(1×time in category 1)+(2×time spent in category 2)
Data was analysed using the one-way ANOVA test followed by Dunnett's test using the SigmaStat 2.3 computer package.

[2] = tested on: rats rendered neuropathic by partial sciatic nerve ligation; assay: Cold allodynia (acetone drop), partial sciatic nerve ligation model; assay type: in vivo, rat; conditions: for positive response to cold stimulus (declined from 100%): between 40-60 minutes post drug
[3] = tested on: rats rendered neuropathic by partial sciatic nerve ligation; assay: Thermal hyperalgesia (Hargreaves' device), partial sciatic nerve ligation model; assay type: in vivo, rat
Procedure: (§1) Male Wistar rats, weighing 250-350 g (mean 300 g) were housed at a constant temperature under a 14:10 light/dark cycle, with free access to food and water.
(§2) The animals were randomised into four experimental groups, with six animals in each group:
(§3) Group B. L-29 in a DMSO Vehicle in Three i.p. Doses: 0.1 mgkg^−1, 1 mgkg^−1, 10 mgkg^−1
(§4) In this study, six animals were allocated to each dose group and baseline limb withdrawal thresholds were recorded for each animal at t=0. This was immediately followed by the ip. administration of L-29 solution.
(§5) Limb withdrawal thresholds to all three modalities were recorded at t=0. Each animal then received i.p. injection of the antagonist in a 40% DMSO and saline solution, immediately followed by the administration of L-29 at a dose of 1 mgkg^−1 via the same route. Sensory testing resumed and limb withdrawal thresholds were recorded over the course of the experiment as described.
(§6) Following the original description for partial sciatic nerve ligation by Seltzer et al.^2, surgery was performed in equal number. Under inhalational anaesthesia using isoflurane and nitrous oxide, the left sciatic nerve was exposed at upper-thigh level and the dorsal third—half of the sciatic nerve tightly ligated with a 7-0 silk suture at a site just distal to the point at which the posterior biceps semitendinosus nerve branches off the sciatic nerve. Haemostasis was confirmed and the wound then closed with muscle and skin sutures and a small volume of 0.5% bupivicaine administered subcutaneously. A strict aseptic technique was maintained throughout. The animal was then recovered and returned to its housing environment and a post-operative check conducted the following day. See FIG. 12 for full description and protocol.
Behavioural tests included simple reflex withdrawal to mechanical, thermal and cold stimuli. […] Baseline sensory thresholds were measured pre-operatively on the day of surgery and on post-operative day eight. […] Sensory thresholds were recorded at time (t) 0, 20, 40, 60 and 80 minutes post drug administration.
Thermal hyperalgesia is assessed using a noxious infrared heat stimulus applied to the plantar surface of both hind paws as described by Hargreaves et al.^4 Paw withdrawal thresholds to a focused beam of radiant heat at a constant temperature of 46° C. and infrared intensity (of twenty for rats and thirty for mice) is measured. […] Sampling is repeated five times to each paw with three minutes between testing and a mean withdrawal threshold is calculated.
(§7) Statistical significance was determined for neuropathy by the paired t-test and for drug effects by the one-way ANOVA (Dunnett's test) (compared to post-operative values), both taking p<0.05 as statistically significant.

FAAH = biological target: T1, FAAH (Rattus norvegicus, UniProt P97612); assay: Inhibition of FAAH catalysed [3H]-AEA hydrolysis; assay type: biochemical; conditions: for IC50: FAAH catalysed [3H]-AEA hydrolysis, read-out: pI50 (converted)
T1 sequence (P97612 1-579): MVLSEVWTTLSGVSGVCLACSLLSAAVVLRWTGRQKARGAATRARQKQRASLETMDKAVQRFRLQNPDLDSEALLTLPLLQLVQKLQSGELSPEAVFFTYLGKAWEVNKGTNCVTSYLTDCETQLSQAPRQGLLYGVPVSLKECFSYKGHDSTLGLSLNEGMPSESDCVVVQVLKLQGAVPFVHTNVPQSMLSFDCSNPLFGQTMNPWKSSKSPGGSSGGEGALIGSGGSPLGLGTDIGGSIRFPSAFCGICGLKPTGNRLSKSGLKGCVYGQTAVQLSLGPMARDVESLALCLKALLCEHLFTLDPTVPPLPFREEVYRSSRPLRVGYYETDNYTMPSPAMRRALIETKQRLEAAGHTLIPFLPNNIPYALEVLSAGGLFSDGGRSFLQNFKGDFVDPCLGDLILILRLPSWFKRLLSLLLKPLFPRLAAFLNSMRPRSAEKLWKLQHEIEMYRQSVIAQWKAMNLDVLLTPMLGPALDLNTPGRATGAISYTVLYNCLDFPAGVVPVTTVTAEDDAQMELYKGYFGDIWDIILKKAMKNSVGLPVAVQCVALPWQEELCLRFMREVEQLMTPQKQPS
Procedure: (§8) The FAAH inhibitory compound that we are investigating is an analogue of PEA called palmitoylallylamide (L-29). It was developed by Dr Didier Lambert and team at the Unité de Chimie pharmaceutique et de Radiopharmacie, Universite catholique de Louvain, Brussels, Belgium. The capacity of L-29 to inhibit FAAH was calculated by measuring the ability of the compound to inhibit FAAH catalysed [^3H]-AEA hydrolysis (maximum inhibition and pI50 calculated). […] Binding to CB1 and CB2 receptors was also calculated by measuring the displacement of radioactive [^3H]-CP55,940 from a cell line transfected with CB1 receptors and radioactive [^3H]-WIN55,212-2 from a cell line transfected with CB2 receptors.

CB1 receptors = biological target: T2, CB1 receptors (Homo sapiens, UniProt P21554); assay: Displacement of [3H]-CP55,940 from a cell line transfected with CB1 receptors; assay type: binding; conditions: concentration of 10 μM
T2 construct: expressed in transfected cells
T2 sequence (P21554 whole entry): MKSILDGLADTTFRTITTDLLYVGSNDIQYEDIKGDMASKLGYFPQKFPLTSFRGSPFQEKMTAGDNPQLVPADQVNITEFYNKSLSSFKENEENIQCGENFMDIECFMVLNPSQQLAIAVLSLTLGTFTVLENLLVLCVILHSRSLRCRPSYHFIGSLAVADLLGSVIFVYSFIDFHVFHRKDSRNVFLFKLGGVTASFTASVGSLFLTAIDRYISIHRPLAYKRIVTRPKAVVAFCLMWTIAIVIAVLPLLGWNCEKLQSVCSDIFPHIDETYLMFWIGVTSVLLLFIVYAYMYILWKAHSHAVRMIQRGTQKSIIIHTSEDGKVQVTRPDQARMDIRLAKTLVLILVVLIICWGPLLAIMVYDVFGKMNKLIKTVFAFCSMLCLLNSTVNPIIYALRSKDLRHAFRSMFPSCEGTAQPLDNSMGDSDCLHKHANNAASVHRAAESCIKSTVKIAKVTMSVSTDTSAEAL
Procedure: as §8

[4] = tested on: rats rendered neuropathic by partial sciatic nerve ligation; assay: Mechanical allodynia (electronic von Frey), partial sciatic nerve ligation model; assay type: in vivo, rat
Procedure: as §1, §2, §3, §4, §5, §6
Behavioural tests included simple reflex withdrawal to mechanical, thermal and cold stimuli. Before commencing experiments, animals were allowed to acclimatise to the testing environment for at least 15 minutes until exploratory behaviour had ceased. In order to minimise bias, the experiment to be conducted was randomised (according to a predetermined random number table—see table 2) on the day of testing and the drug doses were drawn up and given by a separate investigator to the one scoring the behavioural tests who was blinded to the drugs given. Baseline sensory thresholds were measured pre-operatively on the day of surgery and on post-operative day eight. […] Sensory thresholds were recorded at time (t) 0, 20, 40, 60 and 80 minutes post drug administration. […]
as §7

CB2 receptors = biological target: T3, CB2 receptors (Homo sapiens, UniProt P34972); assay: Displacement of [3H]-WIN55,212-2 from a cell line transfected with CB2 receptors; assay type: binding; conditions: concentration of 10 μM
T3 construct: expressed in transfected cells
T3 sequence (P34972 whole entry): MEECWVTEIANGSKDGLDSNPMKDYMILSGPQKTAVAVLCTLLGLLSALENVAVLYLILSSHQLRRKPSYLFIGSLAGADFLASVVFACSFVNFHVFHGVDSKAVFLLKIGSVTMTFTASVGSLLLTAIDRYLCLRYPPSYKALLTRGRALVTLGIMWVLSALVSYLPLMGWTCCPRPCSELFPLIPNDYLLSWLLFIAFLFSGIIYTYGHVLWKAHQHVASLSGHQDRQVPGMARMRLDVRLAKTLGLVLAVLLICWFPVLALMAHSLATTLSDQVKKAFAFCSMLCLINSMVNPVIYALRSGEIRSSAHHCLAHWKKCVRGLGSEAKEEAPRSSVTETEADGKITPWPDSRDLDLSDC
Procedure: as §8

WIN2 induced catalepsy = conditions: 1 mg/kg i.p.; cited from earlier work
[5] = antagonist 1 mgkg^−1 i.p. + L-29 1 mgkg^−1 i.p.

SMILES: Oc1cc2c(cc1O)CN(C(=S)NCCc1ccc(Cl)cc1)CCC2 [capsazepine, reference compound]
effect of receptor antagonist on antinociceptive effect of L-29 ([1]; either phase, SR2 1 mg/kg or capsazepine 10 mg/kg i.p. prior to 1 mg/kg L-29): do not significantly reverse the antinociceptive effect of L-29

maximum inhibition of FAAH catalysed [3H]-AEA hydrolysis (FAAH): 67%
IC50 (FAAH): 3.39 µM
displacement of [3H]-CP55,940 in the CB1 assay (CB1 receptors): 13.3%
displacement of [3H]-WIN55,212-2 in the CB2 assay (CB2 receptors): 7.8%
SMILES: C=CCNC(=O)CCCCCCCCCCCCCCC [L-29, N-(2-propenyl)hexadecanamide]
pain behaviour v control ([1]; 0.1 mg/kg i.p.): not significantly different from control
pain behaviour v control (P<0.05) ([1]; 1 mg/kg i.p.): significantly attenuated pain behaviour
pain behaviour v control (P<0.05) ([1]; 10 mg/kg i.p.): significantly attenuated pain behaviour
pain behaviour in both phases of the formalin test ([1]; 0.1, 1 and 10 mg/kg i.p., 10 min before 2.5% formalin s.c.): dose-dependently inhibited
decline in positive response to cold stimulus ([2]; 0.1 mgkg^−1 i.p., between 20-40 minutes): decline by almost half
positive response to cold stimulus (declined from 100%) ([2]; 1 mgkg^−1 i.p.): 50%
positive response to cold stimulus (declined from 100%) ([2]; 10 mgkg^−1 i.p.): 50%
reversal of cold allodynia ([2]; all doses (0.1, 1, 10 mgkg^−1 i.p.)): did not yield a statistically significant reversal of cold allodynia
attenuation of thermal hyperalgesia ([3]; 0.1 mgkg^−1 i.p.): only at 40 minutes
attenuation of thermal hyperalgesia ([3]; 1 mgkg^−1 i.p.): attenuated later between 40 and 60 minutes post drug injection
attenuation of thermal hyperalgesia ([3]; 10 mgkg^−1 i.p., between 20 and 60 minutes post drug): Attenuation of thermal hyperalgesia was greatest
reversal of mechanical allodynia ([4]; 0.1 mgkg^−1 i.p.): only at 80 minutes post i.p drug administration
reversal of mechanical allodynia (mechanical sensory thresholds) ([4]; 1 mgkg^−1 i.p., at 20 minutes and 60 minutes post drug): significant increase in mechanical sensory thresholds
reversal of mechanical allodynia ([4]; 10 mgkg^−1 i.p.): No effect on mechanical allodynia

maximum inhibition of FAAH catalysed [3H]-AEA hydrolysis (FAAH): 78%
IC50 (FAAH): 5.01 µM
displacement of [3H]-CP55,940 in the CB1 assay (CB1 receptors): 23.8%
displacement of [3H]-WIN55,212-2 in the CB2 assay (CB2 receptors): 13.9%
SMILES: CCCCCCCCCCCCCCCC(=O)NCCO [PEA, Palmitoylethanolamide, reference compound]

SMILES: Cc1c(C(=O)NN2CCCCC2)nn(-c2ccc(Cl)cc2Cl)c1-c1ccc(Cl)cc1 [SR1, reference compound]
effect of receptor antagonist on antinociceptive effect of L-29 ([1]; phase 2 (15-60 min), antagonist 1 mg/kg i.p. prior to 1 mg/kg L-29): reverses the antinociceptive effect of L-29
time to significant antagonism of WIN2 induced catalepsy (WIN2 induced catalepsy): ≤ 15 min
cold allodynia on co-administration of antagonist and L-29 [2, 5]: significant reduction in % positive response to cold stimulus
effect of co-administered antagonist on anti-hyperalgesic effect of L-29 (thermal) [3, 5]: appeared not to prevent the anti-hyperalgesic and anti-allodynic effects
effect of co-administered antagonist on anti-allodynic effect of L-29 (mechanical) [4, 5]: appeared not to prevent the anti-hyperalgesic and anti-allodynic effects
